A word on the TGI: it is the reduction of tumour growth relative to the control group.

The values that follow come from patent publication US20260041693A1, “COMBINATION THERAPY OF CDK7 INHIBITORS WITH OTHER ANTI-CANCER THERAPIES” (QURIENT CO., LTD., priority 2022, published 2026).

Test [1] concerns phosphorylated form of H2AX (Ser139) in RENCA cells. The experiment in a line: Western blot analysis of phosphorylated H2AX. It is filed as cell-based, mouse. The note with it: 48 hours. Here is the method:
RENCA cells were treated with various concentrations of compound 47 in 5% CO2 at 37′C for 48 hours. Cells were washed with ice-cold PBS twice and lysis buffer was added. Cells were collected and kept on the ice for 30 min. Lysed cells were centrifuged at 12,000 rpm at 4′C for 10 minutes, and then the supernatant was collected. Protein concentrations were quantified using a BCA protein Quantification kit. Equal amounts of protein were fractionated by SDS-PAGE, transferred to a PVDF membrane, and then treated with anti-phospho-H2AX (Ser139) antibody. The phosphorylated form of H2AX protein was detected by HRP-conjugated secondary antibody and the signal was obtained with Super Signal Western blot enhancer. The image was acquired by ImageQuant™ LAS 4000.
On the technique in general: Immunoblotting shows a protein as a band on a membrane.

The test system of test [2] is g-H2AX or 53BP1 foci in PC3 cells. The experiment in a line: g-H2AX / 53BP1 foci imaging in PC3 cells after X-ray irradiation. It is filed as cell-based, human. The following applies: Compound 47 1 hour then X-ray 8, 4 or 2 Gy, 24 hours after irradiation. Here is the method:
PC3 cells were treated with DMSO or various concentrations of Compound 47 for 1 hour. Cells were then irradiated with X-ray at set of 225 KV, 17.7 mA for 5 min using a Faxitron Specimen Radiography System (8 Gy, 4 Gy and 2 Gy irradiation, FIGS. 7A-7C, and 7D-7F, respectively). Cells were collected at 1-, 4-, 6-, 24- and 48-hour post X-ray irradiation and stained with HOECHST and anti-phospho-histone H2AX ([…]) or 53BP1. g-H2AX or 53BP1 foci inside the nucleus were identified with Alexa Flour488. Fluorescence images of the foci were obtained using Opera Phenix 3 High-content screening system (×40 objective) and the average granule number f SD of g-H2AX (FIG. 7A to 7C) or of 53BP1 (FIG. 7D to 7F) per cell was determined using MetaXpress software.

Test [3] relates to RENCA tumor. The experiment in a line: RENCA syngeneic renal tumor mouse model. The following applies: compound 47 10 mg/kg i.p. every day; anti-PD-1 antibody 10 mg/kg i.p. twice a week; alone or both. It is filed as in vivo, BALB/c mice. How it is done:
RENCA cells (1×10^5) were subcutaneously implanted in the right flank of BALB/c mice. Tumor-bearing mice were randomized and then treated with compound 47 (10 mg/kg, intraperitoneally every day), anti-PD-1 antibody (10 mg/kg, intraperitoneally twice a week, clone: RMP1-14, Bio X Cell), or both compound 47 and anti-PD-1 antibody when the average tumor volume reached 31 mm^3 (N=7 or 8 per group). Control mice were treated with vehicle and rat IgG2a isotype control antibody (clone: 2A3, Bio X Cell). Tumor volume and body weight were measured twice per week.

Test [4] has as its system g-H2AX foci in OVCAR3 cells. The experiment in a line: g-H2AX foci imaging in OVCAR3 cells after cisplatin. It is filed as cell-based, human. The following applies: 100 nM cisplatin 24 hours, wash, then Compound 47, 24, 48 and 72 hours. Here is the method: OVCAR3 cells were treated with DMSO or 100 nM of cisplatin for 24 hours. Cells were then washed with culture media and treated with Compound 47 at various concentrations. Cells were collected 24, 48 and 72 hours after cisplatin wash and then stained with 4′,6-diamidino-2-phenylindole (DAPI) and anti-phospho-histone H2AX ([…]). g-H2AX foci inside the nucleus were identified by Alexa-568 staining. Fluorescence images of g-H2AX foci were captured using a confocal imaging system, CQ1 (×40 objective).

For test [5], the system named is DU145 tumor. The experiment in a line: DU145 castration-resistant prostate cancer cell line-derived xenograft model. It is filed as in vivo, BALB/c nude mice. The following applies: compound 47 3 mg/kg i.p. every day; docetaxel 15 mg/kg i.p. once a week; alone or both. How it is done: DU145 cells (1×10^7) mixed with matrigel (50:50) were subcutaneously implanted in the right flank of male BALB/c nude mice. Tumor-bearing mice were randomized and then treated with compound 47 (3 mg/kg, intraperitoneally every day), docetaxel (15 mg/kg, intraperitoneally once a week), or both compound 47 and docetaxel when the average tumor volume reached 154 mm^3 (N=8 per group). Tumor volume and body weight were measured twice per week.

The test system of test [6] is MCF7 tumor. The experiment in a line: MCF7 human breast adenocarcinoma xenograft model. It is filed as in vivo, BALB/c nude mice. The following applies: compound 47 3 mg/kg i.p. every day; fulvestrant 2.5 mg/dose s.c. every day; alone or both. Here is the method: MCF7 cells (1×10^7) mixed with matrigel (50:50) were subcutaneously implanted in the right flank of female BALB/c nude mice. Tumor-bearing mice were randomized and treated with compound 47 (3 mg/kg, intraperitoneally every day), fulvestrant (2.5 mg/dose, subcutaneously every day), or both compound 47 and fulvestrant when the average tumor volume reached 117 mm^3 (N=8 per group). Tumor volume and body weight were measured twice per week. […] On day 28, tumor volume of the compound 47 with fulvestrant combination group was reduced compared to the compound 47 alone group or the fulvestrant treatment group.
(A xenograft is tissue or cells of one species grown in another, often human tumour cells in immunodeficient mice.)

In test [7] the test system is RENCA cells. The experiment in a line: Cell viability assay (CellTiter-Glo). It is filed as cell-based. The note with it: Mus musculus, 72 hours, read-out: IC50 of RENCA cell growth/viability. Here is the method: RENCA renal adenocarcinoma were treated with various concentrations of compound 47 for 72 hours. Cell viability was measured using the CellTiter-Glo assay system (Promega). Luminescence units were normalized to those of untreated cells and are presented as the percentage of cell viability. IC50 was calculated using the dose-response curve generated by GraphPad Prism.
For orientation: In ATP-based viability assays light output follows the ATP content of the culture.

Test [8] deals with T1, CDK7 (Mus musculus, UniProt Q03147).
T1 construct: endogenous in cells; host or cells: RENCA cells
T1 sequence (Q03147 2-346 limits assumed): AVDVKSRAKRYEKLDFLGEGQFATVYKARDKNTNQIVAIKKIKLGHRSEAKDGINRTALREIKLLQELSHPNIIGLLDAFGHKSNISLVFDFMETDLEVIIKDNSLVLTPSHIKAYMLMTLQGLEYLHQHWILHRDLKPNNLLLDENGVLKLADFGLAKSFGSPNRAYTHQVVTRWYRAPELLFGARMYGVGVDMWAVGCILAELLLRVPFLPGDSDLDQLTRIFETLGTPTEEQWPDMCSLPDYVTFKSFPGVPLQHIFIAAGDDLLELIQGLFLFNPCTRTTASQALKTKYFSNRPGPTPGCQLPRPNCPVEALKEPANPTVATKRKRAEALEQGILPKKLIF
T1 sequence (Q61458 1-323 partner): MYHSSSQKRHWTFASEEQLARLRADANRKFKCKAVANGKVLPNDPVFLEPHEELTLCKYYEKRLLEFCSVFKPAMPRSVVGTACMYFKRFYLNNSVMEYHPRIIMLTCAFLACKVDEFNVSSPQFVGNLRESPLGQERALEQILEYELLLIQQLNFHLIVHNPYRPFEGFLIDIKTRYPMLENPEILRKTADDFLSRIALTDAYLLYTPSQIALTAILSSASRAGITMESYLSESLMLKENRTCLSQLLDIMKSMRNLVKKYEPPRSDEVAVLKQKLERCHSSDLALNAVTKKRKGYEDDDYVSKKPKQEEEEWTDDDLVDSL
T1 sequence (P51949 1-309 partner): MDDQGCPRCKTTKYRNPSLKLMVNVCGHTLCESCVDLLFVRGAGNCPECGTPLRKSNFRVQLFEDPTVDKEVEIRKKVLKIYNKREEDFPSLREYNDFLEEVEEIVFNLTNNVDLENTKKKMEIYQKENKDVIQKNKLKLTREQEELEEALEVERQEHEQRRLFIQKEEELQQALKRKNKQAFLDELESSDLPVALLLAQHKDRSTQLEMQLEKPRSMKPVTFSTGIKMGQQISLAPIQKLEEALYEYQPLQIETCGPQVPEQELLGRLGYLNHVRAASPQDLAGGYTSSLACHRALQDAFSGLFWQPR
The experiment in a line: Target occupancy assay (Bio-compound 3 pull-down, anti-CDK7 blot). It is filed as cell-based. The following applies: RENCA cells treated 4 hours; lysate incubated with 1 μM Bio-compound 3. Here is the method: RENCA cells were treated with various concentrations of compound 47 for 4 hours. Cells were washed with ice-cold PBS twice and then lysed with ice-cold lysis buffer (0.025M Tris, 0.15M NaCl, 0.001M EDTA, 1% NP-40, 5% glycerol, pH 7.4) with protease and phosphatase cocktails (Sigma-Aldrich). Lysed cells were centrifuged at 12,000 rpm at 4′C for 10 minutes and then the supernatant was collected. Protein concentrations were determined using a BCA protein quantification kit (Thermo Fisher Scientific, #23227). Equal amounts of protein were incubated with 1 μM of biotinylated compound 3 (Bio-compound 3; biotinylated analog of compound 47) at 4′C overnight and then immunoprecipitated with streptavidin-agarose bead. Pull-downed proteins were eluted, loaded to SDS-PAGE, transferred to a PVDF membrane (MilliporeSigma), and then treated with anti-CDK7 antibody. CDK7 protein was detected by HRP-conjugated secondary antibody. The image was obtained by ImageQuant™ LAS4000.

Test [9] concerns OVCAR3 tumor. The experiment in a line: OVCAR3 high-grade serous ovarian cancer cell line-derived xenograft model. It is filed as in vivo, BALB/c nude mice. The note with it: compound 47 3 mg/kg i.p. every day; olaparib 100 mg/kg orally every day; alone or both. Here is the method: OVCAR3 cells (1×10^7) mixed with matrigel (50:50) were subcutaneously implanted in the right flank of female BALB/c nude mice. Tumor-bearing mice were randomized and treated with compound 47 (3 mg/kg, intraperitoneally every day), olaparib (100 mg/kg, orally every day), or both compound 47 and olaparib when the average tumor volume reached 173 mm^3 (N=8 per group). Tumor volume and body weight were measured twice per week.

As for `C=C(F)C(=O)Nc1ccc2c(-c3ccccc3CNc3nc(NC[C@H]4CCNC[C@@H]4O)nc4c(C(C)C)cnn34)nccc2c1` [Compound 47], in test [1], the “phosphorylation of H2AX at Serine-139” value is recorded as “induced phosphorylation of H2AX at the Serine-139 residue in a dose dependent manner”. Moreover, the “DNA damage sustaining effect (granule number of g-H2AX or 53BP1 per cell)” value in test [2] is given as “significant DNA damage sustaining effects”. In test [3], the “tumor growth inhibition (TGI)” value was 50.2%. Further, the “percentage of g-H2AX-positive cells (g-H2AX foci)” value in test [4] was “increased the percentage of g-H2AX foci in a time- and dose-dependent manner”. For the same compound, the TGI in test [5] is recorded as 61%; in test [6], 81%; in [9] it was 36%. For the same compound, the IC50 in [7] came out at 0.02 µM. In addition, the CDK7 occupancy entry in test [8] is recorded as “in a dose dependent manner”.
In [5], `CC(=O)O[C@@]12CO[C@@H]1C[C@H](O)[C@@]1(C)C(=O)[C@H](O)C3=C(C)[C@@H](OC(=O)[C@H](O)[C@@H](NC(=O)OC(C)(C)C)c4ccccc4)C[C@@](O)([C@@H](OC(=O)c4ccccc4)[C@H]21)C3(C)C` [docetaxel, reference compound] had a TGI of 25%.
As to `C[C@]12CC[C@@H]3c4ccc(O)cc4C[C@@H](CCCCCCCCC[S+]([O-])CCCC(F)(F)C(F)(F)F)[C@H]3[C@@H]1CC[C@@H]2O` (stereo partly drawn) [fulvestrant, reference compound], in test [6], the TGI was found to be 81%.
As for `O=C(c1cc(Cc2n[nH]c(=O)c3ccccc23)ccc1F)N1CCN(C(=O)C2CC2)CC1` [olaparib, reference compound], the TGI in test [9] turned out to be 38%.
